Results as given in article PMC5691054, “An unexpected protein interaction promotes drug resistance in leukemia” (Nature Communications, 2017).
“Also recorded” adds a separate entry of the source.

Legend:
Meg01 cells = assay: 6MP cytotoxicity in Meg01 cells; type: cell-based, Human; conditions: Antimycin A 10 nM, in words
Protocol: (§1) HEK293 cells transfected with ABCC4 or ABCC4ΔC in the presence or absence of MPP1, MO7e, and Meg01 cells were treated with 10 concentrations of 6MP, ranging from 1 to 1000 µM, for 96 h. Cell viability analysis was determined using CellTiter Glo (Promega). Where applicable, cell penetrating peptides conjugated to the PDZ-binding motif of ABCC4 (labeled either ABCC4-PDZ or ABCC4ΔC) were added to the cells at 20 μM. Media was changed daily and new ABCC4-PDZ/ABCC4ΔC peptide and 6MP was added. IC50 values were calculated using GraphPad Prism.
(§2) The Meg01, MO7e, and ABCC4 KO MO7e cell lines were plated at 1500 cells per well in a 96-well plate. Cells were treated with 10 concentrations of Antimycin A (Santa Cruz) ranging from 0.01 to 1000 μM. Cell viability was determined using CellTiter Glo (Promega). Meg01, MO7e, and ABCC4 KO MO7e cells in the presence or absence of 10 nM Antimycin A were treated with 10 concentrations of 6MP, ranging from 1 to 1000 µM, for 96 h. Cell viability analysis was determined using CellTiter Glo. IC50 values were calculated using GraphPad Prism.

MO7e cells = assay: 6MP cytotoxicity in MO7e cells and CRISPR knock-outs; type: cell-based, Human; conditions: MO7e vs. ABCC4 KO; Antimycin A 10 nM, in words
Protocol: as §1
CRISPR-Cas9 plasmids containing gRNAs against ABCC4 ([…]) and MPP1 ([…]) were purchased from Sigma Aldrich. MO7e cells were transiently transfected with constructs containing the gRNA, Cas9 Nickase, and a flurophore. Forty-eight hours after transfection, cells were sorted for fluorescent positive cells and single cells were sorted into individual wells of a 96-well plate. Single-sorted cells were allowed to expand and deletion of the gene of interest was verified by immunoblotting.
as §2

[1] = system: ABCC4 at the plasma membrane; assay: Surface biotinylation of ABCC4; type: cell-based; conditions: Antimycin A, Fig. 6f, in words
Protocol: MO7e, Meg01, or transfected HEK293 cells were treated with trypsin, washed in PBS (pH 8) and incubated with 0.8 mM EZ-Link Sulfo-NHS-SS-Biotin (Pierce) solution for 30 min at room temperature with gentle agitation. Following incubation, the biotin molecules were quenched with 25 mM tris (pH 8) solution containing 0.1 M glycine before cell lysis using MPER (Thermo Scientific) containing a protease inhibitor cocktail (Roche). A volume of 20 µl of the lysate was removed for the total lysate control and the remaining lysate was incubated with avidin-agarose beads (Pierce) for 18 h on a rotatory shaker at 4 °C. The agarose beads attached to cell surface proteins were then separated from the lysate containing cytosolic proteins by centrifugation and the three samples (input, supernatant and pellet) were analyzed by immunoblotting.

MPP1 = molecular target: T1, MPP1 (Homo sapiens, UniProt Q00013); assay: MPP1 protein expression (immunoblot); type: cell-based; conditions: Antimycin A treatment; Meg01 cells (Supplementary Fig. 6e), in words
T1 construct: incubated with various concentrations of full-length MPP1; His tag (N); S-tag (N); made in house; host or cells: E. coli
T1 sequence (Q00013 1-466): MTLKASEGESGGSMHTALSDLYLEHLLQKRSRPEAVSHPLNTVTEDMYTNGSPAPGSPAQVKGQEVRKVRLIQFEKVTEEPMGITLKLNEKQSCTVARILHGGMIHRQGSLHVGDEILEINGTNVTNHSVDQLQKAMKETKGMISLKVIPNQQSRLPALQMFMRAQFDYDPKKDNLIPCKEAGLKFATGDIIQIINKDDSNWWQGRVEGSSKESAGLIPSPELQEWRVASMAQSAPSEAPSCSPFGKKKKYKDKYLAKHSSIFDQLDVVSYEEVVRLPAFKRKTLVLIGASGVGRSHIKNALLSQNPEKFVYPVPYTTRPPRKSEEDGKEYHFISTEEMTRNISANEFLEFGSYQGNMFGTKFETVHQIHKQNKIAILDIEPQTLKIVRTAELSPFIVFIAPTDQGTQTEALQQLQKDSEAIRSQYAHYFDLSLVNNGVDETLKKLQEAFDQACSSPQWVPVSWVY
Excerpt: Forty-eight hours after transfection, cells were trypsinized and washed twice in PBS. Cells were lysed in MPER lysis buffer (Pierce) containing 1× protease inhibitor cocktail (Roche). Cell lysates were subjected to three rounds of sonication on ice with a minimum of 15 s of sonication per round. Protein concentration of the lysates was quantified using a Bradford assay (Biorad). Twenty-five micrograms of total protein lysates were loaded and separated by SDS-PAGE on a 10% gel. Proteins were then transferred to a nitrocellulose membrane (GE Healthcare) and probed with antibodies directed against various proteins of interest. The levels of pAcGFP-tagged ABCC4 and ABCC4ΔC were determined using the polyclonal full-length GFP antibody (1:2000, Santa Cruz). The level of MPP1 was detected using the monoclonal p55/MPP1 antibody (1:2500) from Epitomics. Where specified, the levels of ABCC4 were detected by using the rat monoclonal M4I10 antibody (1:2000, Abcam). An anti-Actin antibody was used as a loading control (1:10,000). Secondary antibodies conjugated to HRP (1:2000, GE Healthcare) were used. For co-immunoprecipitation experiments, light chain-specific secondary antibodies (1:5000, Jackson Immunoresearch) was used to prevent cross-contamination with heavy chain antibodies. The Clarity chemiluminescence (BioRad) reagent was used to detect the proteins. […]

Structure (SMILES): CCCCCC[C@H]1C(=O)O[C@H](C)[C@H](NC(=O)c2cccc(NC=O)c2O)C(=O)O[C@@H](C)[C@@H]1OC(=O)CC(C)C [Antimycin A]
- effect of Antimycin A on 6MP sensitivity (Meg01 cells): sensitized to 6MP by Antimycin A (10 nM)
- effect of Antimycin A on 6MP sensitivity (MO7e cells): shifted the 6MP dose–response curve to the left, but only for cells harboring ABCC4, not ABCC4 KO cells; also recorded: specifically sensitizes ABCC4 expressing MO7e cells, but not ABCC4 KO cells
- surface / plasma membrane ABCC4 [1]: reduces ABCC4 at the plasma membrane
- effect on protein expression of MPP1 (MPP1): unchanged; also recorded: does not reduce the protein expression of MPP1
